In patent EP4050002A1, “ANTI-PROLIFERATIVE AGENTS” (First Health Pharmaceuticals B.V., priority 2021, dated 2022):

Molecular target: DDX3X (Homo sapiens, UniProt O00571)
Assay: Helicase assay (unwinding of 18/36mer dsRNA)
Format: biochemical
Set-up: host or cells: 293T cells (transient transfection, anti-HA immunoprecipitation, protein kept on beads)
Details: 50, 250 and 500 µM, in presence of ATP
Description: The DDX3X protein was obtained by immunoprecipitation from 293T cells (3x10^5) were seeded in 6-well plates and, after 24h, transfected with 1 µg of HA-DDX3 (Addgene plasmid # 44975) by using the Lipofectamine reagent (Thermo Fischer Scientific). After 36 h, cells were lysed in NP-40 Lysis Buffer (20 mM HEPES pH=7.5, 10 mM EGTA pH=8, 40 mM β-glycerolphosphate, 1% NP40, 2.5 mM MgCl2, 2 mM Orthovanadate, 2 mM NaF, 1 mM DTT, and 1X protease inhibitors mixture) and 2 mg of proteins were immunoprecipitated with anti-HA antibodies (Covance) in NP40 lysis buffer. Immunoprecipitated samples were washed twice with lysis buffer and one time in helicase reaction buffer (50 mM Tris HCl pH=8, 1 mM DTT, 5% glycerol, 10 mM MgCl2). Beads were then resuspended in 100 µl in helicase reaction buffer. […]
Ultimately, reactions were performed in a final volume 100 µl of helicase reaction buffer plus ATP 4 mM, 30 µl of beads used to immunoprecipitate HA-DDX3X, 20 nM of 18/36mer dsRNA and 100 nM of competitor at 37°C for 1 hour and stopped by adding 10 µl of a stopping solution (EDTA 60 mM pH=8, 40% glycerol, 0.6% SDS, 1% Orange G). […] Quantification of the ssRNA was performed by the ImageJ software (version 1.53, NIH). […]

DDX3X, sequence (O00571 whole entry): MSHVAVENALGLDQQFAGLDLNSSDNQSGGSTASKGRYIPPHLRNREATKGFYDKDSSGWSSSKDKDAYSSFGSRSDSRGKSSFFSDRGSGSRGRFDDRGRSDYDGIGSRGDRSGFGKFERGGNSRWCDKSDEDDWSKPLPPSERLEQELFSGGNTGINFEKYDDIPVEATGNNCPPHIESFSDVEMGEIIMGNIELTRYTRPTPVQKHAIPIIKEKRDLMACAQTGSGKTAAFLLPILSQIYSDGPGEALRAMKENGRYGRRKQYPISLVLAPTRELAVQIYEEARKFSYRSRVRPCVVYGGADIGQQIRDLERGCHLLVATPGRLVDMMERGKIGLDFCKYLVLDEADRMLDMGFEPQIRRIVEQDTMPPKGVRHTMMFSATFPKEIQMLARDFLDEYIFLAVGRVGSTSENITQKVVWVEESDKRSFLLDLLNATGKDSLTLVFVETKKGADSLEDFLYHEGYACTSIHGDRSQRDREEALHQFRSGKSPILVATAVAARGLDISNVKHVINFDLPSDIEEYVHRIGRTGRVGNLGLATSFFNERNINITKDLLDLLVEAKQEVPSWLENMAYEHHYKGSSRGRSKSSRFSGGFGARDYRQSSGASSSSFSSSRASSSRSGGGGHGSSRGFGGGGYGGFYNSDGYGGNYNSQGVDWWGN

`CCCCc1cn(-c2ccc(-c3nnc(-c4ccccc4C(F)(F)F)o3)cc2)nn1` [Compound 5] was tested. Which “inhibitory effect on DDX3X helicase activity” value did it give?
Its value is “inhibitory effect on DDX3X helicase activity”.
